In ChEMBL document CHEMBL1201862, “PubChem BioAssay data set” (2004):
Calls of active or inactive are those of the source.

Experiments:
[1] = biological target: T1, Rac GTPase-activating protein 1 (Homo sapiens, UniProt Q9H0H5); assay: MgcRacGAP GTPase-activating activity inhibitors, confirmation, biochemical, ADP Hunter fluorescence, primary and confirmatory (AID 624330); type: functional
T1 sequence (Q9H0H5 whole entry): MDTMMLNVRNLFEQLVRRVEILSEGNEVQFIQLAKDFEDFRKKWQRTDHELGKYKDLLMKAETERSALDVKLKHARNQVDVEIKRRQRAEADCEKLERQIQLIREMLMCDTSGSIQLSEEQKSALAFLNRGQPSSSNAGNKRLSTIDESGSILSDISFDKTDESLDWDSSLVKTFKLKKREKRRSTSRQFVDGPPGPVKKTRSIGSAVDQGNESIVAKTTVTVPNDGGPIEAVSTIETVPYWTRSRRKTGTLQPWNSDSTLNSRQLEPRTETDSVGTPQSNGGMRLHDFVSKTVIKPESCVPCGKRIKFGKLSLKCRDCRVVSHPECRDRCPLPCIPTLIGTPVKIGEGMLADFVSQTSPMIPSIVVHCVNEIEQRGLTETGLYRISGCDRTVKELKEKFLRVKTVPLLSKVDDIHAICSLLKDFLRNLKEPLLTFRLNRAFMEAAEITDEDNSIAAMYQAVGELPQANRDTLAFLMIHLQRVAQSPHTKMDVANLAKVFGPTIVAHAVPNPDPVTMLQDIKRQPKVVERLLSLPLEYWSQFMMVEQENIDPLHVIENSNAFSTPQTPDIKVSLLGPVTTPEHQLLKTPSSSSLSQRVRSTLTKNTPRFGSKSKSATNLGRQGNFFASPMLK

[2] = cells; type: functional, cell-based
[3] = cells; type: functional, cell-based; remark: listed apart in the source
[4] = microbe, parasite or virus in culture; type: functional; settings: Mycobacterium tuberculosis
[5] = biological target: T2, Polyadenylate-binding protein 1 (Homo sapiens, UniProt P11940); assay: PABP1 MLLE–PAM2 interaction inhibitors, dose response, miRNA deadenylation inhibitor project, biochemical, fluorescence polarization, Cy5-PAM2 peptide, secondary (AID 602260); type: functional; settings: read-out: IC50_Mean
[6] = biological target: T2, Polyadenylate-binding protein 1; assay: PABP1 MLLE–PAM2 binding inhibitor potency, dose response, biochemical, fluorescence polarization, FITC-PAM2 peptide (AID 602259); type: functional; settings: read-out: IC50_Mean
[7] = biological target: FAD-linked sulfhydryl oxidase ALR (Homo sapiens, UniProt P55789); assay: inhibitors of human ALR sulfhydryl oxidase, dose response, biochemical, H2O2 detection, luminescence, cherry-pick (AID 493248)
[8] = biological target: Cytochrome P450 2C19 (Homo sapiens, UniProt P33261); assay: Cytochrome panel assay with activity outcomes. Panel member name: p450-cyp2c19 Compounds with AC50 equal or less than 10 uM are considered active; type: functional; settings: read-out: AC50
[9] = biological target: T3, RNA-binding protein pos-1 (Caenorhabditis elegans, UniProt G5EF15); assay: inhibitors of POS-1/mex-3 RNA binding, dose response, biochemical, fluorescence polarization (AID 1964);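 note: purified POS-1 fused to maltose binding protein made in E. coli; potency of compounds blocking POS-1 binding to fluorescent RNA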
T3 sequence (G5EF15 whole entry): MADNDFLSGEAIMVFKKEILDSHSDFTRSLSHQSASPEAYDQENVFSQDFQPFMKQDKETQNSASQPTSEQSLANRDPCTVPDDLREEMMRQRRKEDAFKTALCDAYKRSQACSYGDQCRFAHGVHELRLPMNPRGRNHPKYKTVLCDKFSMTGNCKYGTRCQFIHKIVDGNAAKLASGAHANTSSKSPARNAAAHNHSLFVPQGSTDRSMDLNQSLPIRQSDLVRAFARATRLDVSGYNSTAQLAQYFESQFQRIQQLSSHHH

[10] = biological target: T4, Zinc finger protein mex-5 (Caenorhabditis elegans, UniProt Q9XUB2); assay: MEX-5/TCR-2 RNA interaction inhibitors, dose response, biochemical, C. elegans, fluorescence polarization (AID 1960)
T4 sequence (Q9XUB2 whole entry): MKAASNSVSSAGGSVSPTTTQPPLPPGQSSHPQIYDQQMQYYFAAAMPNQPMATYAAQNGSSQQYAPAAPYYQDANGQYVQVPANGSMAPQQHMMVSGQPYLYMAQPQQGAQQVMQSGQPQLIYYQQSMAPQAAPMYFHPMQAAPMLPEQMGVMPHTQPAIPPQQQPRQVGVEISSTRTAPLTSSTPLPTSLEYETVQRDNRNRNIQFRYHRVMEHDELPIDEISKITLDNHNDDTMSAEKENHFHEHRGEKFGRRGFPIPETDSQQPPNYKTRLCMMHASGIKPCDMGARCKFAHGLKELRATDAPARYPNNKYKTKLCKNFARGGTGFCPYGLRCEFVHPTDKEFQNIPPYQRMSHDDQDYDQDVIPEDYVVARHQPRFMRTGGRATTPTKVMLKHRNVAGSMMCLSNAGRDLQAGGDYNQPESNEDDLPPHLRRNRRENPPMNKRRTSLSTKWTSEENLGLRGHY

[11] = biological target: T5, Heat shock factor protein 1 (Mus musculus, UniProt P38532); assay: inhibition of MG132-induced HSE-luciferase signal, confirmation, cell-based, NIH3T3, luminescence, dose retest (AID 2382); type: functional;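 note: NIH3T3 fibroblasts with HSF1-driven luciferase reporter stressed by proteasome inhibitor MG132; luminescence from HSF1-driven luciferase expression after 8 hours of MG132 stress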
T5 sequence (P38532 whole entry): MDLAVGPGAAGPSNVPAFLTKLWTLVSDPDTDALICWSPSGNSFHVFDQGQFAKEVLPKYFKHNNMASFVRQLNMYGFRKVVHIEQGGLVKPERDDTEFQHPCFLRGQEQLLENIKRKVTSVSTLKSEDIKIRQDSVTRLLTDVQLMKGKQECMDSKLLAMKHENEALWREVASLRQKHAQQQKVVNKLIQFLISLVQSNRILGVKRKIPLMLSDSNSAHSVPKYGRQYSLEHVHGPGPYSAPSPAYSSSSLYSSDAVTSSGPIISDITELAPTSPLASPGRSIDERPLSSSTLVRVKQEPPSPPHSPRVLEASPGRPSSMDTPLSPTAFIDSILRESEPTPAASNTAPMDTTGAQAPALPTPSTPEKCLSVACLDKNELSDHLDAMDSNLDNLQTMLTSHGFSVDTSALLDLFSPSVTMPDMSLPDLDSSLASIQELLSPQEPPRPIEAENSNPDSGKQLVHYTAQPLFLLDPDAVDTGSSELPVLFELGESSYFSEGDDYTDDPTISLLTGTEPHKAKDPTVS

[12] = biological target: Paired box protein Pax-8 (Homo sapiens, UniProt Q06710); assay: inhibitors of PAX8-driven TPO luciferase reporter, dose response, RMG-I cells, cherry-pick (AID 687027); type: functional, cell-based;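 note: luciferase reporter driven by Pax8 target thyroperoxidase promoter measured by SteadyGlo luminescence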
[13] = Luminescence Cell-Based Dose Retest to Confirm Inhibitors of Cancer Stem Cells. [Related pubchem assays (depositor defined):AID2717, AID2721]; type: functional; settings: Homo sapiens
[14] = test system: INS1; assay: beta cell apoptosis inhibitors, cytokine rescue, dose response, luminescence, retest (AID 449756); type: functional, cell-based; settings: Rattus norvegicus;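 note: cell death triggered by IL-1 beta plus TNF-alpha plus IFN-gamma mixture; protective hits raise ATP signal compared with cytokine alone wells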
[15] = biological target: T6, Protein skinhead-1 (Caenorhabditis elegans, UniProt P34707); type: functional
T6 sequence (P34707 whole entry): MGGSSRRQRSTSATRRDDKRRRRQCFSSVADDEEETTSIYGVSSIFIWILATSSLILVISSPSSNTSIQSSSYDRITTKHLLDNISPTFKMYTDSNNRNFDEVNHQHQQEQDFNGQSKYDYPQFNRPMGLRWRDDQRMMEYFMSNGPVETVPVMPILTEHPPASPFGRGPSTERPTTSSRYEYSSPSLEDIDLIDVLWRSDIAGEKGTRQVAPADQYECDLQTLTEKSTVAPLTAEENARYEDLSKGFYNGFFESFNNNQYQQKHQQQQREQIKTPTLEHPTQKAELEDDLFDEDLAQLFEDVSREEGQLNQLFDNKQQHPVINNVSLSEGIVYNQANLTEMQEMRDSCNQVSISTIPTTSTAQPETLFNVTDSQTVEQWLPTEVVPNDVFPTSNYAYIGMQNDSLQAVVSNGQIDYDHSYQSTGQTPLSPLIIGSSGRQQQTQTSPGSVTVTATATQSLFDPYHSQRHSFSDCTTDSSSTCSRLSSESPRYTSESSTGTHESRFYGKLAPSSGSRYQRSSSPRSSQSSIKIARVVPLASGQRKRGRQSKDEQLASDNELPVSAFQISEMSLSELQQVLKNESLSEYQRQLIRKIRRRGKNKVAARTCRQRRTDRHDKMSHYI

[16] = growth suppression of PTEN-null colon cells, dose response, cell-based, HCT116 PTEN knockout (AID 1047); type: functional;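 note: HCT116 colon tumor cells with PTEN knocked out; cells exposed to compound for 60 hours before readout; potency for loss of cell viability measured by luminescence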
[17] = growth suppression of beta-catenin-knockout colon cells, dose response, cell-based, HCT116, human colon tumor (AID 1045); type: functional;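 note: HCT116 colon tumor cells with beta catenin knocked out; cells exposed to compound for 60 hours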

T2 sequence (P11940 whole entry): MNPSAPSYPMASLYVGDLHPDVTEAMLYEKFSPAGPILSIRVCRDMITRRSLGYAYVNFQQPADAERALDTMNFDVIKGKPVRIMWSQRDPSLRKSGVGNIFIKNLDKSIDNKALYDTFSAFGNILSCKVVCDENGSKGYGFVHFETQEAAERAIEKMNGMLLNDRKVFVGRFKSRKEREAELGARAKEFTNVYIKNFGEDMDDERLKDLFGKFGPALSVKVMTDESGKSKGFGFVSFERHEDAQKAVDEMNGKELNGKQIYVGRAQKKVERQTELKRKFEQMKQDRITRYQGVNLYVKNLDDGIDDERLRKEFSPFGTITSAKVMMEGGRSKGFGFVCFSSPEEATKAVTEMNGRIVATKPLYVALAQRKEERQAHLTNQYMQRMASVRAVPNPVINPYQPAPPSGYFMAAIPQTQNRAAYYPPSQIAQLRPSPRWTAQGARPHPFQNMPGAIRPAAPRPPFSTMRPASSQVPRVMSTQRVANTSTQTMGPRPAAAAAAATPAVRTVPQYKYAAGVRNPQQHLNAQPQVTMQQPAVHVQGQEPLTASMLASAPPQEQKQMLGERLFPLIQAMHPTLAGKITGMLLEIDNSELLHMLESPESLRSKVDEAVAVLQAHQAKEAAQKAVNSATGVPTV
Chain of Paired box protein Pax-8 (Q06710 whole entry): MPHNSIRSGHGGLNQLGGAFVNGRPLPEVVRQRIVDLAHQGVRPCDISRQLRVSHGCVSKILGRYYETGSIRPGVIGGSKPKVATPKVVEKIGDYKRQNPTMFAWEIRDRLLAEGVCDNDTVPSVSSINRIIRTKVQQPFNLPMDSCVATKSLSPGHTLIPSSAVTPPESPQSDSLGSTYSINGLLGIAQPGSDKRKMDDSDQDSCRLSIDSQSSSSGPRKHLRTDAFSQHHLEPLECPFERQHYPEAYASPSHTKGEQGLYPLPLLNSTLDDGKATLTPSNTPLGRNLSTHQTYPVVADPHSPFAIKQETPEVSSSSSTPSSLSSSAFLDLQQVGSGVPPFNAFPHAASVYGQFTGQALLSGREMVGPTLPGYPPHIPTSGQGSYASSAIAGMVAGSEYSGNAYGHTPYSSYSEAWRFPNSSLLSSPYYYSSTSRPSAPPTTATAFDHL
Chain of FAD-linked sulfhydryl oxidase ALR (P55789 whole entry): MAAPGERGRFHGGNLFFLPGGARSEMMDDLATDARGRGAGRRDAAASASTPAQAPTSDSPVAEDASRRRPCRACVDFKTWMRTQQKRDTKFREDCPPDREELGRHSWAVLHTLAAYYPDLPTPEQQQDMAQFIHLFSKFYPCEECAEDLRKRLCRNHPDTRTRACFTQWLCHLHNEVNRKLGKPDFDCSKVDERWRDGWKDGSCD
Chain of Cytochrome P450 2C19 (P33261 whole entry, the tested form may be a part): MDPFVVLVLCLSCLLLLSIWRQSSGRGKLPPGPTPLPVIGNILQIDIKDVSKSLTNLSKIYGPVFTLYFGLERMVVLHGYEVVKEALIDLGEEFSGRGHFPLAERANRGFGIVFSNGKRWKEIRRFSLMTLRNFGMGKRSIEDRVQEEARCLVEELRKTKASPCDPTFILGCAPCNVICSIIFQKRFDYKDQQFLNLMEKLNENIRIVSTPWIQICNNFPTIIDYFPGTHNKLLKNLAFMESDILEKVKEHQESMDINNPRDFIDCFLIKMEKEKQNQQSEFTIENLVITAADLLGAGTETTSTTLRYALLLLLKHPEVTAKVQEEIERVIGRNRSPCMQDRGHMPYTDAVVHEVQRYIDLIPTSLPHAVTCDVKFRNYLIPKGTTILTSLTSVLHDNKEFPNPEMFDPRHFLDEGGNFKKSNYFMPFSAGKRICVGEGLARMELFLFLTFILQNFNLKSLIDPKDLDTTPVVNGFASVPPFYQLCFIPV

COC(=O)C1CCN(C(=O)COC(=O)/C=C/c2ccc(O)c(OC)c2)CC1
IC50 [1]: 49.7 µM (active)

CCOC(=O)C(/C=N/c1ccc(NC2=NCC(C)S2)cc1)=C(/O)OCC (centres undefined)
EC50 [2]: > 350 µM (not active) | EC50 [3]: > 350 µM (not active)

CC[C@H](C)[C@@H]1O[C@@]2(C=CC1C)CC1C[C@@H](CC=C(C)C(O[C@H]3CC(OC)C(O[C@H]4CC(OC)C(O)C(C)O4)C(C)O3)C(C)C=CC=C3CO[C@@H]4C(O)C(C)=C[C@@H](C(=O)O1)[C@]34O)O2 (some centres undefined)
CC50 [4]: 15.9 µM (active)

Nc1ccc(Nc2nc(-c3ccncc3)cs2)cc1
IC50 [1]: 9.36 µM (active)

COc1ccc(CNc2ccc(S(N)(=O)=O)cc2)cc1
IC50 [5]: > 66 µM (inactive) | IC50 [6]: > 66 µM (inactive)

O=C(CN1CCN(c2ccc(O)cc2)CC1)N(C1CC1)C1CCS(=O)(=O)C1 (centres undefined)
AC50 [7]: 0.238 µM (active) | IC50 [1]: 80.2 µM (active)

C=CCN1C(=O)/C(=C\c2ccc(Cl)cc2)N=C1SCC(=O)NC1CCCCC1
IC50 [5]: > 66 µM (inactive) | IC50 [6]: > 66 µM (inactive)

CCOc1ccc(N(C(=O)/C=C/C(=O)Nc2cc(C)on2)C(C(=O)NC2CCCC2)c2ccccc2C)cc1 (centres undefined)
CC50 [4]: 20.2 µM (active) | AC50 [8]: 31.6 µM (inconclusive)

CN1C(=S)SC(N(O)C(=O)Nc2ccc(Cl)c(Cl)c2)C1(C)C (centres undefined)
CC50 [4]: 38.9 µM (active)

CC1=CC(C)(C)N2C(=O)C3(C(C#N)=C(N)OC4=C3C(=O)CC(C)(C)C4)c3cccc1c32 (centres undefined)
EC50 [9]: > 300 µM (not active) | EC50 [10]: > 300 µM (not active)

CC(=O)C[C@H]1c2cc(F)ccc2S(=O)(=O)N1c1ccc(N(C)C)cc1
EC50 [11]: 33.8 µM (active) | IC50 [1]: 119 µM (active)

O=C(CN1C(=O)c2ccccc2S1(=O)=O)c1ccc(O)c(O)c1
IC50 [1]: 175 µM (active)

C[C@H](CO)N1C[C@H](C)[C@@H](CN(C)C(=O)NC2CCCCC2)Oc2cc(C#Cc3ccc(F)cc3)ccc2S1(=O)=O
AC50 [12]: 9.52 µM (active)

CCOC(=O)C1SC2(C(F)(F)F)CC1(O)c1c(C)cc(C)nc1O2 (centres undefined)
IC50 [5]: > 66 µM (inactive) | IC50 [6]: > 66 µM (inactive)

CCc1cccc2c(C(=O)CCl)c[nH]c12
CC50 [4]: 24.4 µM (active)

CN(C)c1ccc(N=Nc2ccc(S(N)(=O)=O)cc2)cc1
EC50 [2]: > 350 µM (not active) | EC50 [3]: 3.13 µM (active)

FC(F)(F)c1cccc(NC(S)=NN=C(S)NCc2ccccc2)c1
IC50 [5]: > 66 µM (inactive) | IC50 [6]: > 66 µM (inactive)

COCCNCCOCCOc1ccc(Cl)c(C)c1
IC50 [1]: 138 µM (active)

CCN(CC)S(=O)(=O)c1ccc(N/N=C/c2cc(OC)ccc2O)nc1
EC50 [2]: 302 µM (active) | EC50 [3]: 25.7 µM (active) | AC50 [13]: 4.47 µM (active) | AC50 [14]: 1.69 µM (active)

Cc1oc(C)c2c(=O)ccc3c(c12)OC(N)=C(C#N)C3c1ccccc1Cl (centres undefined)
CC50 [4]: > 40 µM (active)

Cc1nnc(S/C(=C/c2ccc(-c3cc(Cl)ccc3C)o2)C(=O)O)[nH]1
EC50 [9]: 38.4 µM (active) | EC50 [10]: 31 µM (active)

COc1cccc(NC(=O)CSC(N)=O)c1
IC50 [5]: > 66 µM (inactive) | IC50 [6]: > 66 µM (inactive)

COC(=O)C1=C(C)N(c2ccccc2)/C(=C/c2ccco2)C1=O
EC50 [9]: 99 µM (active) | EC50 [10]: 5.06 µM (active)

C[C@@H]1CN([C@@H](C)CO)C(=O)c2cc(NC(=O)Nc3ccc(C(F)(F)F)cc3)ccc2O[C@@H](C)CCCCO[C@@H]1CN(C)CC1CCCCC1
AC50 [12]: 3.9 µM (active)

COc1ccc(CN2CCCN(C)CC2)c(OC)c1C
IC50 [1]: 124 µM (active)

Cc1ccccc1SCC(=O)OCC(=O)Nc1ccc(N(C)C)cc1
IC50 [1]: 66.7 µM (active)

CC/C(=C\c1ccc(N(C)C)cc1)c1ccncc1
IC50 [15]: > 100 µM (inactive) | IC50 [1]: 30.2 µM (active)

CCCCNC(=O)CN1C(=O)COc2ccc(S(=O)(=O)N3CCCCCC3)cc21
EC50 [2]: > 350 µM (not active) | EC50 [3]: > 350 µM (not active)

COc1ccc(N2CCC(CN=C(S)Nc3cccc(C)c3)C2)cc1 (centres undefined)
IC50 [1]: 39.3 µM (active)

CCC(C)c1ccc2oc(-c3ccc(NC(=O)Cn4cnc5c(=O)n(C)c(=O)n(C)c54)cc3)nc2c1 (centres undefined)
EC50 [2]: > 350 µM (not active) | EC50 [3]: 43.7 µM (active) | EC50 [16]: 9.27 µM (active) | EC50 [17]: 8.52 µM (active)

O=C(NCc1ccccc1)C1Nc2ccc(OC(F)(F)F)cc2C2C=CCC12 (centres undefined)
EC50 [9]: > 300 µM (not active) | EC50 [10]: > 300 µM (not active)

CS(=O)(=O)n1nc(-c2ccccc2)nc1NCc1ccco1
EC50 [2]: > 350 µM (not active) | EC50 [3]: > 350 µM (not active)

Cc1c(C(=O)O)cccc1-n1c(C)cc(/C=N/NC(=O)c2cc3ccccc3o2)c1C
EC50 [9]: > 300 µM (not active) | EC50 [10]: > 300 µM (not active)

O=C(O)CCC(C(=O)O)N1C(=O)/C(=C2/C(=O)Nc3ccccc32)SC1=S (centres undefined)
IC50 [5]: > 66 µM (inactive) | IC50 [6]: > 66 µM (inactive)
